Test results published in PubChem BioAssay AID248 (DTP/NCI, 2004).
Toxic doses and inconclusive results are not listed. No stated cut-off is given here; in the data, active means T/C of 150% or more; inactive means T/C below 125%.

System: L1210 leukemia ip in BDF1 mice, survival T/C
Assay: NCI In Vivo Anticancer Drug Screen. Data for tumor model L1210 Leukemia (intraperitoneal) in B6D2F1 (BDF1) mice
Conditions: endpoint: mean survival time, higher = longer survival
In short: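 Antitumor effect is assessed in tumor-bearing animals. Survival in the compound arm is compared with a vehicle-dosed control arm and expressed as their quotient.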

[1] = dose: 100.0 mg/kg/injection, schedule: Q01DX009 (ip), vehicle: Klucel (hydroxypropylcellulose) (HPC)
[2] = dose: 100.0 mg/kg/injection, schedule: Q04DX003 (ip), vehicle: Klucel (hydroxypropylcellulose) (HPC)
[3] = dose: 200.0 mg/kg/injection, schedule: Q01DX009 (ip), vehicle: Klucel (hydroxypropylcellulose) (HPC)
[4] = dose: 200.0 mg/kg/injection, schedule: Q04DX003 (ip), vehicle: Klucel (hydroxypropylcellulose) (HPC)
[5] = dose: 400.0 mg/kg/injection, schedule: Q01DX009 (ip), vehicle: Klucel (hydroxypropylcellulose) (HPC)
[6] = dose: 100.0 mg/kg/injection, schedule: Q04DX003 (ip), vehicle: saline with Tween-80
[7] = dose: 200.0 mg/kg/injection, schedule: Q04DX003 (ip), vehicle: saline with Tween-80
[8] = dose: 400.0 mg/kg/injection, schedule: Q04DX003 (ip), vehicle: saline with Tween-80

Measured: T/C

O=NN(CCCl)C(=O)NC1CCS(=O)(=O)C1 (stereo not drawn) (tested in a mixture with another compound)
inactive: dose: 67.0 mg/kg/injection, schedule: Q01DX001 (ip), vehicle: other 102 % of control
active: dose: 6.0 mg/kg/injection, schedule: Q01DX001 (ip), vehicle: other 177 % of control | dose: 9.0 mg/kg/injection, schedule: Q01DX001 (ip), vehicle: other 270 % of control | dose: 13.0 mg/kg/injection, schedule: Q01DX001 (ip), vehicle: other 300 % of control | dose: 20.0 mg/kg/injection, schedule: Q01DX001 (ip), vehicle: other 200 % of control | dose: 30.0 mg/kg/injection, schedule: Q01DX001 (ip), vehicle: other 223 % of control | dose: 44.0 mg/kg/injection, schedule: Q01DX001 (ip), vehicle: other 184 % of control

Cc1cc(C)nc(NN=C2CC(C)(C)N(O)C(C)(C)C2)n1
inactive: dose: 25.0 mg/kg/injection, schedule: Q04DX003 (ip), vehicle: saline 96 % of control | dose: 50.0 mg/kg/injection, schedule: Q04DX003 (ip), vehicle: saline 98 % of control | dose: 100.0 mg/kg/injection, schedule: Q04DX003 (ip), vehicle: saline 102 % of control

CCCCCCCCCCCCCCCCCCCC/C=C/C1CC(=O)OC1=O (stereo not drawn)
inactive: [1] 98 % of control | [2] 95 % of control | [3] 96 % of control | [4] 98 % of control | [5] 96 % of control | dose: 400.0 mg/kg/injection, schedule: Q04DX003 (ip), vehicle: Klucel (hydroxypropylcellulose) (HPC) 113 % of control

Cc1cccc(Nc2cc(N)nc(N)n2)c1
inactive: dose: 50.0 mg/kg/injection, schedule: Q01DX Z (ip), vehicle: methylcellulose (MC) 96 % of control

COc1cc(OC)c(/C=C/c2ccc3ccccc3[n+]2[O-])c(OC)c1
inactive: dose: 100.0 mg/kg/injection, schedule: Q04DX002 (ip), vehicle: gum acacia 95 % of control | dose: 200.0 mg/kg/injection, schedule: Q04DX002 (ip), vehicle: gum acacia 95 % of control | dose: 400.0 mg/kg/injection, schedule: Q04DX002 (ip), vehicle: gum acacia 100 % of control

COc1ccc(/C=N/NC(=O)c2ccccc2O)cc1
inactive: [1] 98 % of control | [3] 96 % of control | [5] 112 % of control

CCOC(=O)c1cc(C)n(-c2ccc(C(=O)O)cc2)c1C
inactive: dose: 50.0 mg/kg/injection, schedule: Q01DX009 (ip), vehicle: Klucel (hydroxypropylcellulose) (HPC) 97 % of control | [1] 95 % of control | [2] 98 % of control | [3] 95 % of control | [4] 91 % of control

CC(=O)n1cc(C2CC(=O)OC3=C2CC(=O)C(C)(C)C3)c2ccccc21 (stereo not drawn)
inactive: dose: 100.0 mg/kg/injection, schedule: Q01DX009 (ip), vehicle: saline with Tween-80 100 % of control | [6] 95 % of control | dose: 200.0 mg/kg/injection, schedule: Q01DX009 (ip), vehicle: saline with Tween-80 96 % of control | [7] 101 % of control | dose: 400.0 mg/kg/injection, schedule: Q01DX009 (ip), vehicle: saline with Tween-80 91 % of control | [8] 101 % of control

S=C(c1ccco1)N1CCOCC1
inactive: dose: 75.0 mg/kg/injection, schedule: Q01DX001 (ip), vehicle: carboxymethylcellulose (CMC) 97 % of control | dose: 75.0 mg/kg/injection, schedule: Q01DX009 (ip), vehicle: saline with Tween-80 102 % of control | dose: 75.0 mg/kg/injection, schedule: Q04DX003 (ip), vehicle: saline with Tween-80 104 % of control | dose: 150.0 mg/kg/injection, schedule: Q01DX001 (ip), vehicle: carboxymethylcellulose (CMC) 104 % of control | dose: 150.0 mg/kg/injection, schedule: Q01DX009 (ip), vehicle: saline with Tween-80 100 % of control | dose: 150.0 mg/kg/injection, schedule: Q04DX003 (ip), vehicle: saline with Tween-80 97 % of control | dose: 300.0 mg/kg/injection, schedule: Q01DX001 (ip), vehicle: carboxymethylcellulose (CMC) 98 % of control | dose: 300.0 mg/kg/injection, schedule: Q04DX003 (ip), vehicle: saline with Tween-80 89 % of control

CCN(CC)C(C(=O)Nc1ccccc1)C(=O)Nc1ccccc1
inactive: [6] 92 % of control | [7] 94 % of control | [8] 90 % of control

CCOC(=O)CC1(C)OCC(c2ccccc2)O1 (stereo not drawn)
inactive: dose: 222.0 mg/kg/injection, schedule: Q01DX Z (ip), vehicle: saline 106 % of control | dose: 333.0 mg/kg/injection, schedule: Q01DX Z (ip), vehicle: saline 86 % of control | dose: 500.0 mg/kg/injection, schedule: Q01DX Z (ip), vehicle: saline 91 % of control
